The IC50 is the midpoint of a concentration-inhibition curve. Low readings indicate inhibition by little substance, high ones a need for much substance.

15 compounds from ChEMBL document CHEMBL1141998, “Synthesis and evaluation of pyrazolidine derivatives as dipeptidyl peptidase IV (DP-IV) inhibitors” (Bioorg Med Chem Lett, 2005) can be followed below.

This assay has as its target Dipeptidyl peptidase 4 (Rattus norvegicus, UniProt P14740). Description: Inhibitory activity against dipeptidyl peptidase IV (DP-IV).

Sequence of Dipeptidyl peptidase 4 (P14740 whole entry): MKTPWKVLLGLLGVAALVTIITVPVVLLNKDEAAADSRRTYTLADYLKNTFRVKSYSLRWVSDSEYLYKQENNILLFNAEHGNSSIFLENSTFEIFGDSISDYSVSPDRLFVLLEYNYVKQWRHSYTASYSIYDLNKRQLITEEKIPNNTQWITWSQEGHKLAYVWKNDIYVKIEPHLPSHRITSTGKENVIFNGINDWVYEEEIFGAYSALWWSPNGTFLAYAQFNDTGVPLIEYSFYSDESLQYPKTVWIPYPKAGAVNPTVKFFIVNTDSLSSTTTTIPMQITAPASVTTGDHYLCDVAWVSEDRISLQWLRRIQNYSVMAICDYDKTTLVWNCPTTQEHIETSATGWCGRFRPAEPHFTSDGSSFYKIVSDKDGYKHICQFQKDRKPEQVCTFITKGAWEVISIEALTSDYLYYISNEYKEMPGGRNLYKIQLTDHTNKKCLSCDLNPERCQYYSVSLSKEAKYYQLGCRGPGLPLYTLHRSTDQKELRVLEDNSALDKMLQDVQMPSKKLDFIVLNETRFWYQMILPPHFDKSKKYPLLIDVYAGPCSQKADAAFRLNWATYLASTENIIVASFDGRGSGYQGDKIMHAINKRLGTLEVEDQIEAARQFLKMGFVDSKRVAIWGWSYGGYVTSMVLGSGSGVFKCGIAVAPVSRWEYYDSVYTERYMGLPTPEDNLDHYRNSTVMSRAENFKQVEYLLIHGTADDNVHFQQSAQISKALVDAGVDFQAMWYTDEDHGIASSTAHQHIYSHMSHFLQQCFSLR

For the compound `CC(C)C[C@H](N)C(=O)N1CCCN1C(=O)Nc1cccc([N+](=O)[O-])c1`, the IC50 is 20.7 µM. This lies in the double-digit micromolar range.

In the case of `CC(C)[C@H](N)C(=O)N1CCCN1C(=O)Nc1cccc([N+](=O)[O-])c1`, the half-maximal inhibitory concentration (IC50) was 2.1 µM. Take `O=C(CNC1CCCCC1)N1CCCN1C(=O)Nc1cccc([N+](=O)[O-])c1`: the IC50 was found to be 4.6 µM. The same measure for `CCC(C)[C@H](N)C(=O)N1CCCN1C(=O)Nc1cccc([N+](=O)[O-])c1` (stereo not given in full): 1.56 µM. The value for `CCC(C)[C@H](N)C(=O)N1CCCN1C(=O)OCc1ccccc1` (stereo not given in full) was 23.3 µM. In the case of `CCOC(=O)c1ccc(NC(=O)N2CCCN2C(=O)[C@@H](N)C(C)CC)cc1` (stereo not given in full), 3.9 µM corresponded to half-maximal inhibition (IC50). The value for `CCC(C)[C@H](N)C(=O)N1CCCN1C(=O)Nc1ccc(Cl)c(Cl)c1` (stereo not given in full) was 5.6 µM; that for `CCC(C)[C@H](N)C(=O)N1CCCN1C(=O)Nc1ccc([N+](=O)[O-])c(F)c1` (stereo not given in full) was 2.27 µM. Compound `CCC(C)[C@H](N)C(=O)N1CCCN1C(=O)Nc1ccc(C#N)cc1` (stereo not given in full) showed an IC50 of 9.2 µM. The same measure for `CCC(C)[C@H](N)C(=O)N1CCCN1C(=O)Nc1ccc(C(F)(F)F)cc1` (stereo not given in full): 25 µM. The same measure for `CCC(C)[C@H](N)C(=O)N1CCCN1C(=O)Nc1ccc([N+](=O)[O-])cc1` (stereo not given in full): 7.06 µM.

For `CCC(C)[C@H](N)C(=O)N1CCCN1C(=O)Nc1ccc([N+](=O)[O-])c(Cl)c1` (stereo not given in full), the IC50 turned out to be 4.71 µM. This IC50 and that of the compound before are within 1.5-fold of each other. Consider `CCC(C)[C@H](N)C(=O)N1CCCN1C(=O)Nc1ccccc1` (stereo not given in full), for which the IC50 was determined as 15 µM. The value for `CCC(C)[C@H](N)C(=O)N1CCCN1C(=O)Nc1cccc(C#N)c1` (stereo not given in full) was 4.04 µM.

In the case of `CCOC(=O)c1cccc(NC(=O)N2CCCN2C(=O)[C@@H](N)C(C)CC)c1` (stereo not given in full), the IC50 turned out to be 8.8 µM. Compared with the last compound, the IC50 is about 2.2-fold higher.
